Data published in ChEMBL document CHEMBL4043183, “Elucidation of a carboxylate O-methyltransferase NcmP in nocamycin biosynthetic pathway” (2017).
Values after ≈ are worked out from the molar mass of the structure shown.

What was measured:
Format in all cases: functional
Bacillus thuringiensis = test: Antibacterial activity against Bacillus thuringiensis CCTCC AB2013119 by broth microdilution method
Bacillus subtilis = test: Antibacterial activity against Bacillus subtilis CCTCC AB2013121 by broth microdilution method
Enterococcus faecalis = test: Antibacterial activity against Enterococcus faecalis ATCC 29212 by broth microdilution method
Micrococcus luteus = test: Antibacterial activity against Micrococcus luteus CCTCC AB2013120 by broth microdilution method
Staphylococcus aureus = test: Antibacterial activity against Staphylococcus aureus ATCC 29213 by broth microdilution method

Row | MIC (Bacillus thuringiensis) [µg/mL] | MIC (Bacillus subtilis) [µg/mL] | MIC (Enterococcus faecalis) [µg/mL] | MIC (Micrococcus luteus) [µg/mL] | MIC (Staphylococcus aureus) [µg/mL] | SMILES
1 | 0.5 (≈ 0.993 µM) | > 128 | 4 (≈ 7.94 µM) | 16 (≈ 31.8 µM) | 32 (≈ 63.5 µM) | COC(=O)[C@H]1[C@@H](C)O[C@@]2(C)CC(=O)[C@H]3O[C@@]12O[C@H]([C@H](C)/C=C(C)/C=C/C(O)=C1/C(=O)CNC1=O)[C@H]3C
2 | 32 (≈ 65.4 µM) | > 128 | > 128 | > 128 | > 128 | CC(/C=C/C(O)=C1/C(=O)CNC1=O)=C\[C@@H](C)[C@H]1O[C@@]23O[C@H](C(=O)C[C@]2(C)O[C@H](C)[C@@H]3C(=O)O)[C@@H]1C
